The results in this text go back to ChEMBL document CHEMBL3813700, “New halogenated tris-(phenylalkyl)amines as h5-HT2B receptor ligands” (Bioorg Med Chem Lett, 2016).

Experiment [1] concerns the target 5-hydroxytryptamine receptor 2A (Homo sapiens, UniProt P28223). Put plainly: Displacement of [3H]ketanserin from human 5-HT2A receptor measured after 90 mins by microbeta scintillation counting method.
Experiment [2] has as its target T1, 5-hydroxytryptamine receptor 2B (Homo sapiens, UniProt P41595). Put plainly: Displacement of [3H]LSD from human 5-HT2B receptor measured after 90 mins by microbeta scintillation counting method.
The species entered for experiment [3] is Homo sapiens. Put plainly: Selectivity index, ratio of Ki for human 5-HT2C receptor to Ki for human 5-HT2B receptor.
The species named for experiment [4] is Homo sapiens. Put plainly: Selectivity index, ratio of Ki for human 5-HT2A receptor to Ki for human 5-HT2B receptor.
In experiment [5] the target is T2, 5-hydroxytryptamine receptor 2C (Homo sapiens, UniProt P28335).
T2 sequence (P28335 whole entry): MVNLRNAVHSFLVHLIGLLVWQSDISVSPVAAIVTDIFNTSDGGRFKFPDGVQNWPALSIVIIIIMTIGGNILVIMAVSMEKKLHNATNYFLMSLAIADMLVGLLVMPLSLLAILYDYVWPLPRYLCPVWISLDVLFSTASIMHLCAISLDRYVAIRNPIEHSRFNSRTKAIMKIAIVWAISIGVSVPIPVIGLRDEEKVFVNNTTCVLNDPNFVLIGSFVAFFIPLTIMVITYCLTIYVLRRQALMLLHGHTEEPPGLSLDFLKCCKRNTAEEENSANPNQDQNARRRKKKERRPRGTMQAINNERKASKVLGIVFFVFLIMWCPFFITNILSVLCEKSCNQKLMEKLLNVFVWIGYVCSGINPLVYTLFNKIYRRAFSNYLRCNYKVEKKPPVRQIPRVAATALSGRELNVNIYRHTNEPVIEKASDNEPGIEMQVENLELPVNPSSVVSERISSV
Put plainly: Displacement of [3H]mesulergine from human 5-HT2C receptor measured after 90 mins by microbeta scintillation counting method.

In experiment [6] the target is T1, 5-hydroxytryptamine receptor 2B. Put plainly: Antagonist activity at human 5-HT2B receptor by PDSP assay.

Sequence of 5-hydroxytryptamine receptor 2A (P28223 whole entry): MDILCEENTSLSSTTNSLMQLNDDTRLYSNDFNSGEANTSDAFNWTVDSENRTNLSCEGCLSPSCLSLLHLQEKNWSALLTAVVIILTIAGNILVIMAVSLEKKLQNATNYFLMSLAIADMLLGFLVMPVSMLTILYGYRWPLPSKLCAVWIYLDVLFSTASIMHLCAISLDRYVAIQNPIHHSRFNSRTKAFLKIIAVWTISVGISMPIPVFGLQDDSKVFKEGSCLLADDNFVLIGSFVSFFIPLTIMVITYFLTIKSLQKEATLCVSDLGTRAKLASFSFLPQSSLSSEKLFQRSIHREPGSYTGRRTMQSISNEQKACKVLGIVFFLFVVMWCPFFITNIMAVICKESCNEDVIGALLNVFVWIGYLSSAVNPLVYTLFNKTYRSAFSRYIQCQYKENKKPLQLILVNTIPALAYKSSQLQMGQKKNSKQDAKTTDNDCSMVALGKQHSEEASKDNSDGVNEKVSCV
T1 sequence (P41595 whole entry): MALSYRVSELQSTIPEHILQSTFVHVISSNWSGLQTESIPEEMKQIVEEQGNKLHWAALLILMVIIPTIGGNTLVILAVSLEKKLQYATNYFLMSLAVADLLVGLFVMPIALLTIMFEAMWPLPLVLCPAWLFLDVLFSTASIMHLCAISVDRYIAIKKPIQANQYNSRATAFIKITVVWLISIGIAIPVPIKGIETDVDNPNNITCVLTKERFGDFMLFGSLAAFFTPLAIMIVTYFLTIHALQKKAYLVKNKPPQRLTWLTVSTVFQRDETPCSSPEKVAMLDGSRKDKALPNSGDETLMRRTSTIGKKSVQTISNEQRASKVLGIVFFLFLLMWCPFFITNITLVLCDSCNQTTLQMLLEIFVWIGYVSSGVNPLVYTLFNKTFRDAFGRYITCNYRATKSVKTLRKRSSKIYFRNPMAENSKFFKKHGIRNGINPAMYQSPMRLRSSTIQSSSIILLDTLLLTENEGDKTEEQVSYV

For the molecule `COc1ccc(CCN(CCCc2cccc(F)c2)CCc2ccc3c(c2)OCO3)cc1OC`, the Ki came to 185 nM in experiment [1], 18 nM in experiment [2] and 167 nM in experiment [5]. The Ratio Ki was found to be 9 in experiment [3] and 10 in experiment [4].

`Cn1ccc2cc(NC(=O)Nc3cccnc3)ccc21`: the Ki in experiment [2] came to 21 nM.

As for `COc1ccc(CCN(CCCc2ccccc2)CCc2ccc3c(c2)OCO3)cc1OC`, the results for the Ratio Ki in experiment [3] and in experiment [4] were 15 and 6, respectively.

Take `COc1ccc(CCN(CCCc2cccc(Cl)c2)CCc2ccc3c(c2)OCO3)cc1OC`: the inhibition constant (Ki) in experiment [1] was 125 nM; in experiment [2] it was 17 nM; in experiment [5], 206 nM. The Ratio Ki came out at 12 in experiment [3] and 7 in experiment [4].

For `COc1ccc(CCN(CCCc2ccccc2Cl)CCc2ccc3c(c2)OCO3)cc1OC`, the IC50 in experiment [6] is 99 nM. The figures for the Ki in experiment [1], in experiment [2] and in experiment [5] were 43 nM, 3.1 nM and 92 nM, respectively. The Ratio Ki was determined as 30 in experiment [3] and 14 in experiment [4].

In the case of `COc1ccc(CCN(CCCc2ccc(F)cc2)CCc2ccc3c(c2)OCO3)cc1OC`, the Ki in experiment [1] is 185 nM; in experiment [2], 14 nM; in experiment [5] it was 126 nM. For the same molecule, the Ratio Ki amounted to 9 in experiment [3] and 13 in experiment [4].

Regarding `COc1ccc(CCN(CCCc2cccc(Br)c2)CCc2ccc3c(c2)OCO3)cc1OC`, the Ki amounted to 103 nM in experiment [1], 14 nM in experiment [2] and 143 nM in experiment [5]. Moreover, the Ratio Ki in experiment [3] was found to be 10; in experiment [4], 7.

`COc1ccc(CCN(CCCc2ccccc2F)CCc2ccc3c(c2)OCO3)cc1OC` displayed an IC50 in experiment [6] of 135 nM. In addition, the Ki in experiment [1] amounted to 65 nM; in experiment [2], 1.7 nM; in experiment [5] it was 79 nM. Moreover, the Ratio Ki in experiment [3] came to 46; in experiment [4], 38.

Turning to `COc1ccc(CCN(CCCc2ccc(Br)cc2)CCc2ccc3c(c2)OCO3)cc1OC`, the values for the Ki in experiment [1], in experiment [2] and in experiment [5] were 221 nM, 45 nM and 219 nM, respectively. Moreover, the Ratio Ki in experiment [3] and in experiment [4] was 5 each time.

With `COc1ccc(CCN(CCCc2cccc(I)c2)CCc2ccc3c(c2)OCO3)cc1OC`, the figures for the inhibition constant Ki in experiment [1], in experiment [2] and in experiment [5] were 169 nM, 18 nM and 154 nM, respectively. Further, the Ratio Ki in experiment [3] and in experiment [4] was 9 in each case.

For `COc1ccc(CCN(CCCc2ccc(Cl)cc2)CCc2ccc3c(c2)OCO3)cc1OC`, the values for the Ki in experiment [1], in experiment [2] and in experiment [5] were 365 nM, 54 nM and 235 nM, respectively. For the same molecule, the Ratio Ki in experiment [3] was 4; in experiment [4], 7.

`COc1ccc(CCN(CCCc2ccccc2I)CCc2ccc3c(c2)OCO3)cc1OC`: the Ki was determined as 75 nM in experiment [1], 13 nM in experiment [2] and 68 nM in experiment [5]. Besides, the Ratio Ki turned out to be 5 in experiment [3] and 6 in experiment [4].

On to `COc1ccc(CCN(CCCc2ccccc2Br)CCc2ccc3c(c2)OCO3)cc1OC`, for which the IC50 in experiment [6] turned out to be 326 nM. Besides, the Ki in experiment [1] was 54 nM; in experiment [2] it was 3.4 nM; in experiment [5], 124 nM. The Ratio Ki was 36 in experiment [3] and 16 in experiment [4].

As for `COc1ccc(CCN(CCCc2ccc(I)cc2)CCc2ccc3c(c2)OCO3)cc1OC`, the Ki in experiment [1] turned out to be 288 nM; in experiment [2], 51 nM; in experiment [5], 224 nM. Besides, the Ratio Ki is 4 in experiment [3] and 6 in experiment [4].
